The test system of data set [1] is foxtail, giant (giant foxtail, Setaria faberii). The data set can be described thus: Test A greenhouse herbicide test, pre- and postemergence. Format: in vivo. The conditions noted are these: Setaria faberi, 240 h, 1000 g ai/ha, 0 to 100 scale. In a few lines: (§1)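 Seeds sown in loam–sand blend got a preemergence directed soil spray of compound in non-phytotoxic solvent with surfactant. Postemergence treatment was given at 2–10 cm, one- to two-leaf stage. After ~10 d in greenhouse, injury was rated visually vs untreated controls, 0 (no effect) to 100 (complete control).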

The subject of the next data set is corn (Zea mays). The description is as above. Format: in vivo. The conditions noted are these: Zea mays, 240 h, 1000 g ai/ha, 0 to 100 scale. In a few lines: as §1
Data set [2] has as its system crabgrass, large (large crabgrass, Digitaria sanguinalis). The description is as above. Format: in vivo. The conditions noted are these: 240 h, 1000 g ai/ha, 0 to 100 scale. In a few lines:
as §1

For data set [3], the system named is barnyardgrass (Echinochloa crus-galli). Described as above. The conditions noted are these: Echinochloa crus-galli, 240 h, 1000 g ai/ha, 0 to 100 scale. It counts as in vivo. The method, boiled down: as §1
In data set [4] the test system is pigweed (Amaranthus retroflexus). Described as above. It counts as in vivo. The conditions noted are these: Amaranthus retroflexus, 240 h, 1000 g ai/ha, 0 to 100 scale. The method, boiled down:
as §1

Data set [5] deals with momingglory (Ipomoea spp.). The data set is described as above. The conditions noted are these: 240 h, 1000 g ai/ha, 0 to 100 scale. Format: in vivo. The method, boiled down: as §1
Data set [6] relates to velvetleaf (Abutilon theophrasti). The description is as above. Format: in vivo. The conditions noted are these: 240 h, 1000 g ai/ha, 0 to 100 scale. The method, boiled down:
as §1

Data set [7] has as its system wheat (Triticum aestivum). Described as above. It counts as in vivo. The conditions noted are these: Triticum aestivum, 240 h, 1000 g ai/ha, 0 to 100 scale. In a few lines: as §1
Data set [8] relates to sedge, umbrella (small-flower umbrella sedge, Cyperus difformis). The data set can be described thus: Test B flooded paddy test. It counts as in vivo. The conditions noted are these: Cyperus difformis, 360 h; 250 g ai/ha, Flood; visual rating on scale of 0 to 100 where 0 is no effect and 100 is complete control; 13 to 15 d after treatment; read-out: Plant response rating, Sedge, Umbrella. In a few lines:
(§2)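 Plants at the 2-leaf stage were flooded to 3 cm above soil, and test compounds were applied directly into the paddy water, which was held at that depth throughout. After 13 to 15 d in a greenhouse, injury was rated visually against untreated controls on a 0–100 scale (0 no effect, 100 complete control).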

Data set [9] concerns barnyardgrass (Echinochloa crus-galli). The data set can be described thus: Test B flooded paddy test. The conditions noted are these: Echinochloa crus-galli, 360 h; 250 g ai/ha, Flood; visual rating on scale of 0 to 100 where 0 is no effect and 100 is complete control; 13 to 15 d after treatment; read-out: Plant response rating, Barnyardgrass. It counts as in vivo. In a few lines:
as §2

The test system of data set [10] is ducksalad (Heteranthera limosa). The data set can be described thus: Test B flooded paddy test. The conditions noted are these: Heteranthera limosa, 360 h; 250 g ai/ha, Flood; visual rating on scale of 0 to 100 where 0 is no effect and 100 is complete control; 13 to 15 d after treatment; read-out: Plant response rating, Ducksalad. It counts as in vivo. In a few lines:
as §2

The test system of another data set is rice (Oryza sativa). The data set can be described thus: Test B flooded paddy test. Format: in vivo. The conditions noted are these: Oryza sativa, 360 h; 250 g ai/ha, Flood; visual rating on scale of 0 to 100 where 0 is no effect and 100 is complete control; 13 to 15 d after treatment; read-out: Plant response rating, Rice. The method, boiled down:
as §2

Read-outs that look alike come from different tables or passages of the source.

As usually defined, the melting point is the temperature, or range, at which the solid turns liquid. Regarding `Cc1nn(C)c(=O)c(-c2c(C)oc3ccccc23)c1O` [Compound 4, 5-hydroxy-2,6-dimethyl-4-(2-methyl-3-benzofuranyl)-3 (2H)-pyridazinone], the melting point was in the range of 238 to 240 °C. Moreover, the pest or weed control at 1000 g/ha in [1] (post-emergence, Postemergence, 0 is no effect, 100 is complete control, read-out: Foxtail, Giant plant response rating) was determined as 80%. Further, the pest or weed control at 1000 g/ha in data set [1] (pre-emergence, Preemergence, 0 no effect, 100 complete control, read-out: Plant response rating, Foxtail, Giant) was determined as 80%. The plant injury at 1000 g/ha in the data set on corn (Zea mays) (post-emergence, Postemergence, 0 is no effect, 100 is complete control, read-out: Corn plant response rating) turned out to be 0%. The compound also showed a Corn plant response rating (crop injury, 0 = no effect, 100 = complete kill) at 1000 g/ha in the data set with corn (Zea mays) (pre-emergence, Preemergence, 0 no effect, 100 complete control) of 10%. For the same compound, the pest or weed control at 1000 g/ha in data set [2] (post-emergence, Postemergence, 0 is no effect, 100 is complete control, read-out: Crabgrass, Large plant response rating) amounted to 50%. In addition, in data set [2] (pre-emergence, Preemergence, 0 no effect, 100 complete control, read-out: Plant response rating, Crabgrass, Large), the pest or weed control at 1000 g/ha was determined as 80%. Besides, in [3] (post-emergence, Postemergence, 0 is no effect, 100 is complete control, read-out: Barnyardgrass plant response rating), the pest or weed control at 1000 g/ha turned out to be 70%. Also, the pest or weed control at 1000 g/ha in data set [3] (pre-emergence, Preemergence, 0 no effect, 100 complete control, read-out: Plant response rating, Barnyardgrass) was determined as 100%. The pest or weed control at 1000 g/ha in data set [4] (post-emergence, Postemergence, 0 is no effect, 100 is complete control, read-out: Pigweed plant response rating) was found to be 50%. Besides, the pest or weed control at 1000 g/ha in [4] (pre-emergence, Preemergence, 0 no effect, 100 complete control, read-out: Plant response rating, Pigweed) is 70%. In data set [5] (post-emergence, Postemergence, 0 is no effect, 100 is complete control, read-out: Morningglory plant response rating), the pest or weed control at 1000 g/ha worked out at 70%. The pest or weed control at 1000 g/ha in [5] (pre-emergence, Preemergence, 0 no effect, 100 complete control, read-out: Plant response rating, Morningglory) worked out at 60%. In data set [6] (post-emergence, Postemergence, 0 is no effect, 100 is complete control, read-out: Velvetleaf plant response rating), the pest or weed control at 1000 g/ha turned out to be 60%. In data set [6] (pre-emergence, Preemergence, 0 no effect, 100 complete control, read-out: Plant response rating, Velvetleaf), the pest or weed control at 1000 g/ha stood at 40%. Besides, in data set [7] (post-emergence, Postemergence, 0 is no effect, 100 is complete control, read-out: Wheat plant response rating), the plant injury at 1000 g/ha was found to be 0%. The plant injury at 1000 g/ha in [7] (pre-emergence, Preemergence, 0 no effect, 100 complete control, read-out: Plant response rating, Wheat) was 0%. In [8], the pest or weed control at 250 g/ha came out at 0%. Moreover, the pest or weed control at 250 g/ha in data set [9] is 0%. The pest or weed control at 250 g/ha in [10] came to 0%. The plant injury at 250 g/ha in the data set on rice (Oryza sativa) turned out to be 0%.

The values above are taken from US10597388B2, “Pyridazinone herbicides” (FMC CORPORATION, priority 2014, dated 2020).
